Reference: article doi:10.1101/679977v1 (bioRxiv, 2019)
Square brackets hold non-standard residues; d marks the D form. Peptide text beside a SMILES is read from it.

How the values were obtained:
Format in all cases: cell-based
E. coli = assay: Geometric mean of MICs, selectivity and targeting indices
Beneficial strains = assay: Geometric mean of MICs; details: geometric mean of MICs against beneficial strains; >128 counted as 256 μM
E. coli ATCC25922 = assay: Salt, serum, acid and alkaline sensitivity
E. coli 25922 = assay: Outer membrane permeability; details: 2 μM peptide, relative to 10 μg/mL polymyxin B, 5 mM HEPES pH 7.4

Compound: CC[C@H](C)[C@H](NC(=O)CNC(=O)[C@H]1CCCN1C(=O)[C@H](CCCCN)NC(=O)[C@H](Cc1c[nH]c2ccccc12)NC(=O)[C@@H](NC(=O)[C@H](CCCCN)NC(=O)[C@H](CCCCN)NC(=O)[C@@H](N)Cc1c[nH]c2ccccc12)[C@@H](C)CC)C(=O)N[C@@H](CCCCN)C(=O)N[C@@H](CCCCN)C(=O)N[C@@H](Cc1c[nH]c2ccccc12)C(=O)N[C@H](C(=O)N[C@@H](CCCCN)C(=O)NCC(=O)NCC(=O)NCC(=O)N[C@@H](CCC(N)=O)C(=O)N[C@@H](CCCCN)C(=O)N[C@@H](CCCNC(=N)N)C(=O)N1CCC[C@H]1C(=O)N[C@@H](CCCNC(=N)N)C(=O)N[C@H](C(=O)N[C@@H](CCCNC(=N)N)C(=O)N[C@@H](CC(C)C)C(=O)N[C@@H](CO)C(=O)N[C@@H](C)C(=O)O)C(C)C)[C@@H](C)CC [Peptide 11] (H-WKKIWK[dP]GIKKWIKGGGQKRPRVRLSA-OH; N-terminus and C-terminus assumed)
- TI Pathogenic strains (targeting index) (E. coli; GM(E. coli)/GM(other pathogenic strains), smaller = greater specificity): 0.020
- SI E. coli (selectivity index) (E. coli; MHC/GM (E. coli), MHC >128 counted as 256 μM, larger = greater cell selectivity): 80.630
- TI All (TIall, targeting index) (E. coli; all strains, smaller = greater specificity for E. coli): 0.028
- TIall lower than that of melittin (E. coli; from TIall): 31 times
- increase of specificity for E. coli relative to parental peptide 2 (E. coli; from TIall): 2.4 times
- GM E. coli (E. coli; geometric mean of MICs against the 6 E. coli strains, >128 counted as 256 μM): 3.175 µM
- GM Beneficial strains (Beneficial strains): 256.000 µM
- MIC, Control (E. coli ATCC25922; absence of physiological salts, serum, acid and alkaline): 2 µM
- MIC, FeCl3 (E. coli ATCC25922; in presence of 4μM FeCl3 (final)): 4 µM
- MIC, MgCl2 (E. coli ATCC25922; in presence of 1 mM MgCl2): 16 µM
- MIC, KCl (E. coli ATCC25922; in presence of 4.5 mM KCl (final)): 2 µM
- MIC, NaCl (E. coli ATCC25922; in presence of 150 mM NaCl (final)): 32 µM
- MIC, PH=2 (E. coli ATCC25922; peptide incubated at pH=2 for 4 h prior to MIC determination): 4 µM
- MIC, PH=4 (E. coli ATCC25922; peptide incubated at pH=4 for 4 h prior to MIC determination): 4 µM
- MIC, PH=10 (E. coli ATCC25922; peptide incubated at pH=10 for 4 h prior to MIC determination): 2 µM
- MIC, PH=12 (E. coli ATCC25922; peptide incubated at pH=12 for 4 h prior to MIC determination): 4 µM
- outer membrane permeability (NPN uptake) (E. coli 25922): 61%
